From PubChem BioAssay AID330 (DTP/NCI, 2004)
Several values for one entry are separate records, joined by “and”; a condition that tells them apart may be missing. Equal entries are not always repeated. Toxic doses and inconclusive results are not listed. The calls were made as follows: active = survival T/C of 150% or more; inactive = T/C below 125% in these data.

System: P388 leukemia ip, CD2F1 mice, survival T/C
Experiment: NCI In Vivo Anticancer Drug Screen. Data for tumor model P388 Leukemia (intraperitoneal) in CD2F1 (CDF1) mice
Conditions: endpoint: median survival time, higher = longer survival
How it was run: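 Mice carrying the transplanted tumor received test compound or vehicle. Survival was recorded in each group, and the value is the treated-group measurement divided by that of the vehicle-treated control group.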

[1] = dose: 25.0 mg/kg/injection, schedule: Q01DX009 (ip), vehicle: saline
[2] = dose: 50.0 mg/kg/injection, schedule: Q01DX009 (ip), vehicle: saline
[3] = dose: 100.0 mg/kg/injection, schedule: Q01DX009 (ip), vehicle: saline
[4] = dose: 50.0 mg/kg/injection, schedule: Q01DX005 (ip), vehicle: saline with Tween-80
[5] = dose: 100.0 mg/kg/injection, schedule: Q01DX005 (ip), vehicle: saline with Tween-80
[6] = dose: 200.0 mg/kg/injection, schedule: Q01DX005 (ip), vehicle: saline with Tween-80
[7] = dose: 100.0 mg/kg/injection, schedule: Q01DX009 (ip), vehicle: suspension in saline
[8] = dose: 50.0 mg/kg/injection, schedule: Q01DX009 (ip), vehicle: saline with Tween-80
[9] = dose: 100.0 mg/kg/injection, schedule: Q01DX009 (ip), vehicle: saline with Tween-80
[10] = dose: 200.0 mg/kg/injection, schedule: Q01DX009 (ip), vehicle: saline with Tween-80
[11] = dose: 400.0 mg/kg/injection, schedule: Q01DX009 (ip), vehicle: saline with Tween-80
[12] = dose: 100.0 mg/kg/injection, schedule: Q04DX003 (ip), vehicle: Klucel (hydroxypropylcellulose) (HPC)
[13] = dose: 200.0 mg/kg/injection, schedule: Q04DX003 (ip), vehicle: Klucel (hydroxypropylcellulose) (HPC)
[14] = dose: 400.0 mg/kg/injection, schedule: Q04DX003 (ip), vehicle: Klucel (hydroxypropylcellulose) (HPC)
[15] = dose: 60.0 mg/kg/injection, schedule: Q01DX005 (ip), vehicle: saline with Tween-80
[16] = dose: 120.0 mg/kg/injection, schedule: Q01DX005 (ip), vehicle: saline with Tween-80
[17] = dose: 50.0 mg/kg/injection, schedule: Q01DX009 (ip), vehicle: Klucel (hydroxypropylcellulose) (HPC)
[18] = dose: 100.0 mg/kg/injection, schedule: Q01DX009 (ip), vehicle: Klucel (hydroxypropylcellulose) (HPC)
[19] = dose: 200.0 mg/kg/injection, schedule: Q01DX009 (ip), vehicle: Klucel (hydroxypropylcellulose) (HPC)
[20] = dose: 240.0 mg/kg/injection, schedule: Q01DX005 (ip), vehicle: saline with Tween-80
[21] = dose: 50.0 mg/kg/injection, schedule: Q01DX005 (ip), vehicle: Klucel (hydroxypropylcellulose) (HPC)
[22] = dose: 100.0 mg/kg/injection, schedule: Q01DX005 (ip), vehicle: Klucel (hydroxypropylcellulose) (HPC)

Measured: T/C

[Cl][Mo]([Cl])([Cl])[Cl].[Cl][Mo]([Cl])([Cl])[Cl]
inactive: [1] 104 % of control | [2] 103 % of control | [3] 99 % of control

c1cnc2c(OCCOCCOCCOCCOc3cccc4cccnc34)cccc2c1
inactive: [4] 90 % of control | [5] 90 % of control | [6] 98 % of control

COc1ccc(CSC(=S)Nc2cc(C)c(C)cc2[N+](=O)[O-])cc1
inactive: dose: 50.0 mg/kg/injection, schedule: Q01DX009 (ip), vehicle: suspension in saline 93 % of control | [7] 97 % of control | dose: 200.0 mg/kg/injection, schedule: Q01DX009 (ip), vehicle: suspension in saline 97 % of control

Cc1cccc(C(=O)N(C)C(c2ccco2)P(=O)(c2ccccc2)c2ccccc2)c1 (stereo unspecified)
inactive: [8] 107 % of control | [9] 101 % of control | [10] 90 % of control | [11] 86 % of control

O=C(OC(C(F)(F)F)C(F)(F)F)c1ccccc1
inactive: [12] 105 % of control | [13] 101 % of control | [14] 109 % of control

CCN(CCO)C(=O)Nc1ccc(Cl)cc1
inactive: dose: 60.0 mg/kg/injection, schedule: Q01DX005 (ip), vehicle: Klucel + Tween-80 99 % of control | dose: 120.0 mg/kg/injection, schedule: Q01DX005 (ip), vehicle: Klucel + Tween-80 101 % of control | dose: 240.0 mg/kg/injection, schedule: Q01DX005 (ip), vehicle: Klucel + Tween-80 100 % of control

COc1cc(C(c2cc3c(cc2OC(C)=O)OCO3)C(C(C)=O)C(C)=O)cc(OC)c1OC(C)=O (stereo unspecified)
inactive: [15] 90 % of control | [16] 96 % of control

O=C(c1cc2ccccc2o1)N1CCN(Cc2ccccc2)CC1
inactive: [17] 102 % of control | [18] 101 % of control | [19] 109 % of control

CC1(C)C=CC2=C(O1)C(=O)c1ccccc1C2=O
inactive: dose: 25.0 mg/kg/injection, schedule: Q01DX009 (ip), vehicle: water 101 % of control | dose: 50.0 mg/kg/injection, schedule: Q01DX009 (ip), vehicle: water 107 % of control | dose: 100.0 mg/kg/injection, schedule: Q01DX009 (ip), vehicle: water 115 % of control | dose: 200.0 mg/kg/injection, schedule: Q01DX009 (ip), vehicle: water 110 % of control

CC(=O)Nc1c2ccccc2nc2ccccc12
inactive: [4] 95 % of control | [5] 91 % of control | [6] 94 % of control

CC1CCCN(c2cc3nc[nH]c(=O)c3cc2[N+](=O)[O-])C1 (stereo unspecified)
inactive: [12] 103 % of control | [13] 100 % of control | [14] 99 % of control

CCc1nc(N)nc(N)c1-c1ccc(NC2CCCCC2)c([N+](=O)[O-])c1
inactive: [15] 101 % of control | [16] 95 % of control | [20] 94 % of control

CC(=O)O[C@H]1CC[C@@]2(C)C(=CC[C@@H]3[C@@H]2CC[C@]2(C)C(=NCCCN4CCOCC4)CC[C@@H]32)C1
inactive: [21] 105 % of control | [22] 101 % of control | dose: 200.0 mg/kg/injection, schedule: Q01DX005 (ip), vehicle: Klucel (hydroxypropylcellulose) (HPC) 99 % of control

COc1ccccc1Nc1nc(-c2ccc([N+](=O)[O-])o2)cs1
inactive: [4] 93 % of control | [5] 86 % of control | [6] 88 % of control

OC1(c2ccccc2)CCCCCC1
inactive: dose: 25.0 mg/kg/injection, schedule: Q01DX009 (ip), vehicle: saline with Tween-80 113 % of control | [8] 106 % of control | [9] 106 % of control and 108 % of control

N=C(N)c1ccc(N=NNc2ccc(C(=N)N)cc2)cc1
inactive: dose: 12.5 mg/kg/injection, schedule: Q01DX005 (ip), vehicle: Klucel + Tween-80 94 % of control | dose: 12.5 mg/kg/injection, schedule: Q01DX005 (ip), vehicle: saline with Tween-80 96 % of control | dose: 25.0 mg/kg/injection, schedule: Q01DX005 (ip), vehicle: Klucel + Tween-80 98 % of control | dose: 50.0 mg/kg/injection, schedule: Q01DX005 (ip), vehicle: Klucel + Tween-80 100 % of control

Nc1c(Cl)ncnc1NCCN1CCOCC1
inactive: [21] 99 % of control | [22] 96 % of control

CNCC(CO)C(C)(C)C (stereo unspecified)
inactive: dose: 100.0 mg/kg/injection, schedule: Q04DX003 (ip), vehicle: saline 101 % of control | dose: 200.0 mg/kg/injection, schedule: Q04DX003 (ip), vehicle: saline 92 % of control

CC(C)(C)OC(=O)NC(Cc1cn(Cc2ccccc2)cn1)C(=O)O (stereo unspecified)
inactive: [8] 96 % of control | [9] 89 % of control | [10] 108 % of control

CSc1ccccc1P(c1ccccc1)c1ccccc1SC
inactive: [17] 90 % of control | [18] 91 % of control | [19] 91 % of control

NC=NC(CCC(=O)O)C(=O)O (stereo unspecified)
inactive: dose: 50.0 mg/kg/injection, schedule: Q01DX005 (ip), vehicle: saline 106 % of control and 92 % of control | dose: 100.0 mg/kg/injection, schedule: Q01DX005 (ip), vehicle: saline 99 % of control

N#CCOc1ccccc1
inactive: dose: 3.12 mg/kg/injection, schedule: Q01DX009 (ip), vehicle: other 101 % of control | dose: 6.25 mg/kg/injection, schedule: Q01DX009 (ip), vehicle: other 102 % of control | dose: 12.5 mg/kg/injection, schedule: Q01DX009 (ip), vehicle: other 99 % of control | dose: 25.0 mg/kg/injection, schedule: Q01DX009 (ip), vehicle: other 106 % of control

CC1(C)CC(=O)C2C(C1)OC1CC(C)(C)CC(=O)C1C2c1ccc2c(c1)OCO2 (stereo unspecified)
inactive: [15] 104 % of control | [16] 100 % of control | [20] 97 % of control

NC(C(=O)O)C(=O)c1ccccc1 (stereo unspecified)
inactive: [9] 100 % of control | [10] 100 % of control | [11] 118 % of control

COC(=N)CCSSCCC(=N)OC
inactive: [1] 102 % of control | [2] 105 % of control | [3] 106 % of control | [7] 101 % of control

O=S(=O)(O)C(O)c1cccnc1 (stereo unspecified)
inactive: dose: 100.0 mg/kg/injection, schedule: Q01DX009 (ip), vehicle: saline sonified 100 % of control | dose: 200.0 mg/kg/injection, schedule: Q01DX009 (ip), vehicle: saline sonified 100 % of control | dose: 400.0 mg/kg/injection, schedule: Q01DX009 (ip), vehicle: saline sonified 100 % of control

COP(=O)(OC)C(O)C1CCCCC1 (stereo unspecified)
inactive: dose: 12.5 mg/kg/injection, schedule: Q01DX009 (ip), vehicle: saline 100 % of control | [1] 116 % of control | [2] 100 % of control and 106 % of control | dose: 200.0 mg/kg/injection, schedule: Q01DX009 (ip), vehicle: saline 99 % of control

CC(=O)N/N=C(/C(=O)O)c1ccccc1
inactive: dose: 100.0 mg/kg/injection, schedule: Q04DX002 (ip), vehicle: Klucel (hydroxypropylcellulose) (HPC) 98 % of control | dose: 200.0 mg/kg/injection, schedule: Q04DX002 (ip), vehicle: Klucel (hydroxypropylcellulose) (HPC) 99 % of control | dose: 400.0 mg/kg/injection, schedule: Q04DX002 (ip), vehicle: Klucel (hydroxypropylcellulose) (HPC) 95 % of control
